Experimental data reported in patent US20170273922A1, “UREA AND BIS-UREA BASED COMPOUNDS AND ANALOGUES THEREOF USEFUL IN THE TREATMENT OF ANDROGEN RECEPTOR MEDIATED DISEASES OR DISORDERS” (THE ROYAL INSTITUTION FOR THE ADVACEMENT OF LEARNING/MCGILL …, priority 2014, published 2017).
Entries after “also recorded” stand apart in the source; their conditions may differ.

Columns and labels:
[1] = biological target: T1, IRF3DBD-AR(1-547) (Homo sapiens, UniProt P10275); test: IRF3DBD-AR(1-547) ISRE-luc reporter assay; format: cell-based; details: PC3 cells, 24 h
T1 construct: IRF3-AR(1-547) is the fusion of IRF3 DBD with the AR NTD (1-547); expressed in transfected cells
T1 sequence (P10275 1-547): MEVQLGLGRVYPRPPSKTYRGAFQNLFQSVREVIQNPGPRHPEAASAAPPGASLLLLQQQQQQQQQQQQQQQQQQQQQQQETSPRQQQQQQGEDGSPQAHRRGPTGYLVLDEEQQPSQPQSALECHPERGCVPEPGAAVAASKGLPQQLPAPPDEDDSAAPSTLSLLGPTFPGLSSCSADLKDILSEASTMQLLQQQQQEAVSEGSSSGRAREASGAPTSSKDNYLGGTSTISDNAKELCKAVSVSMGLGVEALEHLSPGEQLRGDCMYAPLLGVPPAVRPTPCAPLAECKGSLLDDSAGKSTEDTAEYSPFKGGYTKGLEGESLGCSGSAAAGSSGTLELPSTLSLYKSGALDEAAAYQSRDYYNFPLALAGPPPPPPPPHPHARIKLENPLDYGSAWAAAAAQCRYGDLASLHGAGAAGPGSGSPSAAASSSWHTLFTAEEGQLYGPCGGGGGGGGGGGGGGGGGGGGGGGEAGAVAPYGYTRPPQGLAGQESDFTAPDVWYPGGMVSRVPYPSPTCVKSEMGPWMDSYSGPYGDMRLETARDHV

[2] = system: liver hepatocellular carcinoma; test: MTT assay (72 h), liver hepatocellular carcinoma cell line of Table 6.1; format: cell-based; details: HepG2 cells, 72 h treatment, read-out: Cytotoxicity (IC50, μM) HepG2
[3] = system: MCF-7 cells; test: MTT assay (cytotoxicity), MCF-7 cells; format: cell-based; details: 72 h treatment, Table 6.1
Procedure: (§1) MTT assays: LNCaP, 22Rv1, Du145, H1975, A549, MB231 and MCF-7 cells are maintained in RPMI 1640 supplemented with 10% FBS. Cells were seeded at a density of 6-7×10^3 cells per well in 96-well plates. After overnight incubation, cells in fresh RPMI 1640 supplemented with 10% FBS were exposed to DMSO vehicle control or test compounds at designated concentrations for 72 h. Viable cells were evaluated by MTT assays. Experiments were performed in triplicate and repeated at least twice.

[4] = biological target: T2, full-length IRF3 (Homo sapiens, UniProt Q14653); test: Full-length IRF3 ISRE-luc reporter assay; format: cell-based; details: PC3 cells, 24 h
T2 construct: co-transfected with full-length IRF3 or IRF3DBD-AR(1-547) expressing plasmids; expressed in transfected cells
T2 sequence (Q14653 1-427): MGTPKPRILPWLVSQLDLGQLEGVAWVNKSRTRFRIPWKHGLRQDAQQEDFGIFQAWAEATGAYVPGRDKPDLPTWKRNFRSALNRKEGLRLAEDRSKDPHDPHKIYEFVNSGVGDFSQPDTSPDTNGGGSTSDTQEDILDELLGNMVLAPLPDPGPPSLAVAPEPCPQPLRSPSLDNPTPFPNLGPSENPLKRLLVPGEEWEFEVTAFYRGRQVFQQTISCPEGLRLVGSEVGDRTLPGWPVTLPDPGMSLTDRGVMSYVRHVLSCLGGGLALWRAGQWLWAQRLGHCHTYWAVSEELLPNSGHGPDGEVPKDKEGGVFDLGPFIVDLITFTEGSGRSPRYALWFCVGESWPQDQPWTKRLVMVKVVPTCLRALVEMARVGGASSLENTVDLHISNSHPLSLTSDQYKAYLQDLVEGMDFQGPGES
From the text: For all of the others, cells were co-transfected with full-length IRF3 or IRF3DBD-AR(1-547) expressing plasmids and with the ISRE-luc reporter and pRL-TK plasmids. […] As IRF3DBD-AR(1-547) contains the DBD of IRF3, ISRE-luc reporter instead of the PSA-luc reporter was used in our assays.
HEK293 cells were co-transfected with IRF3DBD(1-133) or IRF3DBD-AR(1-547) or IRF3DBD-AR(181-547) or full-length IRF3 expressing plasmids and with the ISRE-luc reporter and the Renilla luciferase pRL-TK plasmids.
Here, IRF3-AR(1-547) is the fusion of IRF3 DBD with the AR NTD (1-547). […] The plasmids expressing IRF3-AR(1-547) (A) or wild-type IRF3 (B) or IRF3 DBD (for NT) as well as ISRE-luc and pRL-TK were transiently transfected into PC3 cells. […] Bic, bicalutamide; EPI, EPI-001.

[5] = system: H1975 cells; test: MTT assay (cytotoxicity), H1975 cells; format: cell-based; details: 72 h treatment, Table 6.1
Procedure: as §1

[6] = system: VP16-AR(507-919); test: VP16-AR(507-919) (NTD-deleted) PSA-luc reporter assay; details: 10 nM DHT, 24 h; PC3 or HEK293 cells
[7] = system: 22Rv1 cells; test: MTT assay (cytotoxicity), 22Rv1 cells; format: cell-based
Procedure, shortened: (§2)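 Cells grown in RPMI 1640 with 10% FBS were seeded at 6-7×10^3 per well, left overnight, then exposed to test compounds at designated concentrations or DMSO vehicle for 72 h in fresh medium. Viability was read by MTT; triplicates, repeated at least twice.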

[8] = system: LNCaP cells; test: MTT assay (cytotoxicity), LNCaP cells; format: cell-based
Procedure, shortened: as §2

[9] = system: MB231 cells; test: MTT assay (cytotoxicity), MB231 cells; format: cell-based; details: 72 h treatment, Table 6.1
Procedure: as §1

[10] = system: DU145 cells; test: MTT assay (cytotoxicity), DU145 cells; format: cell-based; details: 72 h, Table 2.2
Procedure, shortened: as §2

[11] = system: A549 cells; test: MTT assay (cytotoxicity), A549 cells; format: cell-based; details: 72 h treatment, Table 6.1
Procedure: as §1

[12] = MTT assay (72 h), liver hepatocellular carcinoma cell line of Table 6.1; format: cell-based; details: human, HepG2 cells (liver hepatocellular carcinoma), 72 h treatment, read-out: Cytotoxicity (IC50, μM) HepG2
[13] = MTT assay (cytotoxicity), MCF-7 cells; format: cell-based; details: human, 72 h treatment, Table 6.1
Procedure: as §1

[14] = MTT assay (cytotoxicity), H1975 cells; format: cell-based; details: human, 72 h treatment, Table 6.1
Procedure: as §1

[15] = MTT assay (cytotoxicity), 22Rv1 cells; format: cell-based; details: human, 22Rv1 cells
Procedure, shortened: as §2

[16] = MTT assay (cytotoxicity), LNCaP cells; format: cell-based; details: human, LNCaP cells
Procedure, shortened: as §2

[17] = MTT assay (cytotoxicity), MB231 cells; format: cell-based; details: human, 72 h treatment, Table 6.1
Procedure: as §1

[18] = MTT assay (cytotoxicity), DU145 cells; format: cell-based; details: human, DU145 cells, Table 2.4
Procedure, shortened: as §2

[19] = MTT assay (cytotoxicity), A549 cells; format: cell-based; details: human, 72 h treatment, Table 6.1
Procedure: as §1

[20] = biological target: T3, AR-v7 (Homo sapiens, UniProt P10275); test: AR-v7-dependent PSA-luc reporter assay in HEK293 cells; details: 25 μM
T3 sequence (P10275 1-644 isoform P10275-3): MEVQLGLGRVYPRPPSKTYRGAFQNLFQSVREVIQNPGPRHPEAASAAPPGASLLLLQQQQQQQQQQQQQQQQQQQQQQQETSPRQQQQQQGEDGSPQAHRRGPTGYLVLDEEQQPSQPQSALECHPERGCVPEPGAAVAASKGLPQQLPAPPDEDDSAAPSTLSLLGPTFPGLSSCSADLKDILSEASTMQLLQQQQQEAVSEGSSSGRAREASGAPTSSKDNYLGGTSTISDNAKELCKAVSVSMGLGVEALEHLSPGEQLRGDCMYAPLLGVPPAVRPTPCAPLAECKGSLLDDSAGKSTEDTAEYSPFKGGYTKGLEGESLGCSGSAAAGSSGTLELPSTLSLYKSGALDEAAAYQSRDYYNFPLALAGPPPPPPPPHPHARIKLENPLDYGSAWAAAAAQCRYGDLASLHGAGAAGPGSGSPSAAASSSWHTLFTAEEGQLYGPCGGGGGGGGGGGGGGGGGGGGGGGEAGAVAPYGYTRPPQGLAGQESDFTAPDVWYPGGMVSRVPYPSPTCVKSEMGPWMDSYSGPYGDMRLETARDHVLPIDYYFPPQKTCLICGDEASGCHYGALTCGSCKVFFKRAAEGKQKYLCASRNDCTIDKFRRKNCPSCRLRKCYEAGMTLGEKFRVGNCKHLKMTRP
Procedure: Cells were exposed to vehicle control or compounds at designated concentrations (μM) for 48 h.

[21] = system: endogenous AR-Vs in 22Rv1 cells; test: PSA-luc reporter assay in androgen-starved 22Rv1 cells (endogenous LBD-truncated AR variants); details: androgen-starved 3 days, 24 h exposure
Procedure: NT, LNCaP cells were transiently transfected with pIRES vector, PSA-luc and pRL-TK. […] Cells were then transiently transfected with PSA-Luc and pRL-TK and exposed to DMSO or compounds for 24 h, in triplicate. NT, not transfected with PSA-luc.
The ARs were probed by N-terminal directed AR antibody (N20, Santa Cruz); B) The 22Rv1 cells were androgen-starved (in phenol red-free medium+10% CS-FBS) for 3 days to ensure the full-length AR expressed in 22Rv1 are not activated. The 22Rv1 cells were subsequently co-transfected with PSA-luc and pRL-TK plasmids. […] Cells in phenol red-free medium+10% CS-FBS were exposed to DMSO or compounds for 24 h and harvested for Western blot analysis.
The cells were androgen-starved for 3 days and transfected with PSA-Luc and pRL-TK plasmids. NT, cells were transfected with empty vector. Cells were exposed to vehicle control or compounds for 24 h.

[22] = biological target: T4, AR^v567es (Homo sapiens, UniProt P10275); details: 25 μM; COS-1 cells; cited from earlier work
T4 construct: host or cells: COS-1
T4 sequence (P10275 with tags, fused parts or gaps limits assumed): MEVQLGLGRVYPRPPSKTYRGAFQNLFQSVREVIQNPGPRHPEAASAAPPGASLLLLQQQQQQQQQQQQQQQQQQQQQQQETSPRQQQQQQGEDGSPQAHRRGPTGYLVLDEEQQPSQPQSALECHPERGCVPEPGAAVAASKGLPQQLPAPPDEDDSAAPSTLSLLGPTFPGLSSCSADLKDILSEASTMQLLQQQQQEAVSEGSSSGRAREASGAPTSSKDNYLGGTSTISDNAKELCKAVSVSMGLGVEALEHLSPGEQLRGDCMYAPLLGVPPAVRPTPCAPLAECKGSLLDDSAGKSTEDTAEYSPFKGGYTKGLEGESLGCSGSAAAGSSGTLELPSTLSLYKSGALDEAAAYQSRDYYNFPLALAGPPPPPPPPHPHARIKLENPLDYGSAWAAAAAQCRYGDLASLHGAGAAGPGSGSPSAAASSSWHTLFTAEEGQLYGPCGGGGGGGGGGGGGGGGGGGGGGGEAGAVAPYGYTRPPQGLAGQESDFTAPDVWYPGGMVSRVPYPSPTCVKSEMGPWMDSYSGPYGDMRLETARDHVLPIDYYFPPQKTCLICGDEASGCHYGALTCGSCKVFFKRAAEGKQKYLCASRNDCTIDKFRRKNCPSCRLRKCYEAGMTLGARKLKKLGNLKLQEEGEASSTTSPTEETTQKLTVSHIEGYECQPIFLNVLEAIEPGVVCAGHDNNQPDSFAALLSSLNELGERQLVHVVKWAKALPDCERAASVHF

[23] = biological target: T5, AR-v7 in LNCaP cells (Homo sapiens, UniProt P10275); test: PSA-luc reporter assay in LNCaP cells transiently transfected with pIRES-AR-v7; details: 24 h
T5 sequence (P10275 1-644 isoform P10275-3): T3 sequence (P10275 1-644 isoform P10275-3)
Procedure: NT, LNCaP cells were transiently transfected with pIRES vector, PSA-luc and pRL-TK. […] Cells were then transiently transfected with PSA-Luc and pRL-TK and exposed to DMSO or compounds for 24 h, in triplicate.

[24] = 22Rv1 cells, 72 h treatment, Table 6.1
[25] = LNCaP cells, 72 h treatment, Table 6.1

Compound	inhibition of IRF3-AR(1-547)-dependent ISRE-luc reporter activity [1]	IC50 [2] [µM]	IC50 [3] [µM]	activity against wild-type IRF3 (ISRE-luc) [4]	IC50 [5] [µM]	inhibition of DHT-induced activation of VP16-AR(507-919) (PSA-luc) [6]	IC50 [7, 24] [µM]	IC50 [8, 25] [µM]	IC50 [9] [µM]	IC50 [11] [µM]	IC50 at 72 h [12] [µM]	IC50 at 72 h [13] [µM]	IC50 at 72 h [14] [µM]	IC50 at 72 h [17] [µM]	IC50 at 72 h [19] [µM]	other results
N#Cc1ccc(NC(=O)N/C=C/c2cccc(C(F)(F)F)c2)cc1C(F)(F)F [Compound 410]	potently inhibit	0.92	2.6	inactive	2.5	inactive	2.5	1.8	4	2.7						IC50 ([8]; 72 h, Table 2.2): 4.4 µM; IC50 [10]: 10.4 µM
N#Cc1ccc(NC(=O)N/C=C/c2cccs2)cc1C(F)(F)F [Compound 428]	potently inhibit			inactive		inactive					2.4	5.2	7.7	7.6	4.7	IC50 at 72 h ([15]; 72 h, Table 2.4): 3.7 µM; IC50 at 72 h ([16]; 72 h, Table 2.4): 2.1 µM; IC50 at 72 h [18]: 5.1 µM
O=C(Nc1cccc(C(F)(F)F)c1)Nc1ccc(C(=O)Nc2ccccc2F)c(C(F)(F)F)c1 [Compound 822]											3.2	4.5	6.3	8.1	6	IC50 at 72 h ([15]; 72 h treatment, Table 6.1): 4 µM; IC50 at 72 h ([16]; 72 h treatment, Table 6.1): 3 µM
CC(C)(c1ccc(OCC(O)CO)cc1)c1ccc(OCC(O)CCl)cc1 (stereo not drawn) [EPI-001, reference compound]																inhibition of constitutive activation of AR-v7 (PSA-luc) [20]: inhibit; also recorded: active; activity against constitutive activation of endogenous AR-Vs in 22Rv1 cells (PSA-luc) [21]: active; suppression of constitutive activation of AR^v567es in PSA-Luc reporter assay [22]: half; activity in LNCaP cells with forced expression of AR-v7 (PSA-luc) [23]: remain active
O=C(N/C=C/c1cccc(C(F)(F)F)c1)Nc1cnccn1 [Compound 558]		0.14	< 0.5		2.4		0.1	0.06	0.3	0.09						IC50 ([7]; 72 h, Table 2.1): 0.1 µM; IC50 ([8]; 72 h, Table 2.1): 0.06 µM
